Among the data in PubChem BioAssay (NCI) are TGI and GI50 values, retold here.

Test systems include HCC-2998 colon; MALME-3M melanoma; MCF7 breast; MOLT-4 leukemia; NCI-H23 lung; RPMI-8226 leukemia; U251 CNS; BT-549 breast.
Test in all cases: NCI anticancer screen, dose series, 48 h

Each structure is given as a SMILES string.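 Each compound was tested at five concentrations against cells in 96-well plates for 48 hours. The concentration for 50% growth inhibition is given as GI50. TGI marks complete inhibition of growth.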 A value given as a limit tells only on which side of the number the result lay.

Regarding `O=C(O)c1ccc(CI)cc1`, the TGI in the test with HCC-2998 colon was determined as 35.6 µM; in the test on MALME-3M melanoma, 23.3 µM; in the test with MCF7 breast, 31.1 µM; in the test with MOLT-4 leukemia, 40.7 µM; in the test on NCI-H23 lung it was 33.1 µM; in the test with RPMI-8226 leukemia, 45.8 µM. In addition, in the test with U251 CNS, the TGI was determined as 20.8 µM.

As to `COC(=O)c1cc2c3ccccc3n3c(=O)c4cc5ccc(N(S(=O)(=O)c6ccc(C)cc6)S(=O)(=O)c6ccc(C)cc6)cc5nc4c(n1)c23`, the GI50 with BT-549 breast is 35.7 µM; in the test with HCC-2998 colon, more than 100 µM; in the test with MALME-3M melanoma it was 69.7 µM; in the test with MCF7 breast, more than 100 µM; in the test on MOLT-4 leukemia, 28.6 µM; with NCI-H23 lung, 36.6 µM. In addition, the GI50 in the test on RPMI-8226 leukemia is 43.7 µM; in the test on U251 CNS, 10.1 µM. Besides, the TGI in the test on BT-549 breast is more than 100 µM; in the test on HCC-2998 colon it was more than 100 µM; in the test on MALME-3M melanoma, more than 100 µM; in the test on MCF7 breast, more than 100 µM; in the test on MOLT-4 leukemia it was 64.5 µM; with NCI-H23 lung, more than 100 µM. Further, the figures for the TGI with RPMI-8226 leukemia and with U251 CNS were more than 100 µM and 45.2 µM, respectively.

Consider `C=CCn1c(C)nc2ccc(Nc3nc(Nc4ccc(F)cc4)nc4ccccc34)cc21`, for which the GI50 in the test with BT-549 breast is 3.35 µM; with HCC-2998 colon it was 8.87 µM; in the test on MALME-3M melanoma it was 13.1 µM; with MOLT-4 leukemia, 1.77 µM; in the test with NCI-H23 lung, 4.23 µM; with RPMI-8226 leukemia, 1.85 µM. Further, the GI50 in the test with U251 CNS was 3.15 µM. Besides, the TGI with BT-549 breast was determined as 18.1 µM; with HCC-2998 colon it was 23.5 µM; in the test with MALME-3M melanoma, 35.7 µM; with MOLT-4 leukemia, 6.27 µM; in the test on NCI-H23 lung, 26 µM; in the test with RPMI-8226 leukemia, 4.57 µM. Further, in the test on U251 CNS, the TGI was 14.9 µM.

In the case of `CS(=O)(=O)CCNCc1cc(-c2cc3c(Nc4ccc(OCc5cccc(F)c5)c(Cl)c4)ncnc3s2)cs1`, the GI50 was 17.2 µM in the test on BT-549 breast; 6.59 µM with HCC-2998 colon; 19.1 µM in the test with MALME-3M melanoma; 10.8 µM with MCF7 breast; 8.9 µM in the test with MOLT-4 leukemia; 20.5 µM with NCI-H23 lung. The GI50 in the test with RPMI-8226 leukemia is 6.95 µM; in the test with U251 CNS, 9.34 µM. Moreover, the TGI is more than 25 µM in the test with BT-549 breast; 21.5 µM with HCC-2998 colon; more than 25 µM with MALME-3M melanoma; more than 25 µM in the test with MCF7 breast; more than 25 µM with MOLT-4 leukemia; more than 25 µM in the test with NCI-H23 lung. For the same compound, the values for the TGI in the test with RPMI-8226 leukemia and with U251 CNS were 23.2 µM and more than 25 µM, respectively.

In the case of `CCC(O)c1ccc(Br)cc1NC(=O)c1cccc(Cl)c1` (stereo not given), the GI50 is 23.7 µM with BT-549 breast; 20.5 µM with HCC-2998 colon; 36.6 µM with MALME-3M melanoma; 12 µM in the test with MCF7 breast; 15.9 µM in the test with MOLT-4 leukemia; 22.4 µM in the test with NCI-H23 lung. Also, the results for the GI50 with RPMI-8226 leukemia and with U251 CNS were 11.4 µM and 14.1 µM, respectively. Further, the TGI is 74.3 µM in the test on BT-549 breast; 45.4 µM in the test with HCC-2998 colon; more than 100 µM with MALME-3M melanoma; 96 µM with MCF7 breast; 45.5 µM in the test with MOLT-4 leukemia; 86.6 µM in the test on NCI-H23 lung. For the same compound, the TGI with RPMI-8226 leukemia came out at 48.3 µM; with U251 CNS, 31.8 µM.

Consider `CCOC(=O)C(Cc1c[nH]c2c(N(CCO)CCO)cccc12)(NC(C)=O)C(=O)OCC`, for which the GI50 in the test with BT-549 breast was 564 µM; in the test with HCC-2998 colon it was more than 1000 µM; in the test on MALME-3M melanoma it was 202 µM; with MCF7 breast, 141 µM; in the test with NCI-H23 lung it was more than 1000 µM; in the test on U251 CNS, 183 µM. In addition, the TGI with BT-549 breast was more than 1000 µM; with HCC-2998 colon, more than 1000 µM; with MALME-3M melanoma, more than 1000 µM; in the test on MCF7 breast, 305 µM; with NCI-H23 lung it was more than 1000 µM; with U251 CNS it was 420 µM.

In the case of `CCNc1cc(-c2cccc(OC(F)(F)F)c2)nc2ccc(N3CCCC3)cc12`, the GI50 in the test with BT-549 breast was 2.03 µM; with HCC-2998 colon, 2.27 µM; in the test with MALME-3M melanoma it was 1.74 µM; in the test on MCF7 breast, 1.84 µM; in the test with MOLT-4 leukemia, 2.08 µM; in the test on NCI-H23 lung, 1.84 µM. Also, the GI50 is 1.34 µM in the test on RPMI-8226 leukemia and 1.68 µM with U251 CNS. The TGI with BT-549 breast stood at 4.07 µM; in the test with HCC-2998 colon it was 6.06 µM; in the test with MALME-3M melanoma it was 3.36 µM; with MCF7 breast it was 6.54 µM; in the test with MOLT-4 leukemia, 7.08 µM; in the test on NCI-H23 lung it was 4.47 µM. Further, the TGI in the test with RPMI-8226 leukemia was found to be 3.92 µM; in the test on U251 CNS, 3.62 µM.

For `O=c1c2cc(F)ccc2sc2c(N3CCNCC3)nc3ccc(F)cc3c12`, the GI50 in the test on BT-549 breast was 10.1 µM; with HCC-2998 colon, 1.74 µM; in the test with MALME-3M melanoma, 1.59 µM; in the test on NCI-H23 lung it was 1.67 µM; with RPMI-8226 leukemia it was 2.16 µM. The TGI amounted to 24.1 µM in the test on BT-549 breast; 3.4 µM in the test with HCC-2998 colon; 3.06 µM in the test with MALME-3M melanoma; 3.17 µM in the test with NCI-H23 lung; 4.89 µM in the test on RPMI-8226 leukemia.

In the case of `O=S(=O)(NC1=NCCN1C(=S)SN1CCn2c1nsc2=S)c1cccc2ccccc12`, the GI50 with HCC-2998 colon was 21.4 µM; with MALME-3M melanoma it was 12.3 µM; in the test with MCF7 breast, 7.27 µM; in the test with MOLT-4 leukemia, 16.5 µM; in the test on NCI-H23 lung, 20.9 µM; in the test with RPMI-8226 leukemia, 3.7 µM. Also, the GI50 in the test on U251 CNS was 20.6 µM. For the same compound, the TGI in the test on HCC-2998 colon turned out to be 53.2 µM; in the test on MALME-3M melanoma, 57.4 µM; with MCF7 breast it was 58 µM; in the test on MOLT-4 leukemia it was 60.3 µM; with NCI-H23 lung it was 80.9 µM; in the test with RPMI-8226 leukemia, 67.8 µM. Besides, in the test on U251 CNS, the TGI worked out at 49.9 µM.

Take `Cn1c(-c2c(N)n(Nc3cccc(Cl)c3)c3nc(C#N)c(C#N)nc23)nc2ccccc21`: the GI50 in the test with BT-549 breast is 0.0816 µM; with HCC-2998 colon, 6.95 µM; with MCF7 breast, 4.96 µM; in the test with MOLT-4 leukemia, more than 50 µM; in the test with NCI-H23 lung, 2.88 µM; in the test with RPMI-8226 leukemia, 3.53 µM. In the test with U251 CNS, the GI50 is 7.92 µM. Further, the TGI in the test on BT-549 breast is 1.97 µM; with HCC-2998 colon it was 16.9 µM; in the test on MCF7 breast it was more than 50 µM; in the test on MOLT-4 leukemia, more than 50 µM; with NCI-H23 lung, 13.2 µM; with RPMI-8226 leukemia, more than 50 µM. The same compound gave a TGI in the test with U251 CNS of 15.3 µM.
